For series [1] the following is noted: Sprague-Dawley, rat, pH 7.4.
Series [2] concerns thyroid hormone receptor (THR). Kind of series: hTRE_HeLa THR transcriptional activity (nano luciferase reporter) assay with rat liver S9 mixtures. The format is cell-based, human. Particulars: hTRE_HeLa cells; for THR agonist classification (positive if >= 10% of activity of 100 nM T3): parent, inactive S9, phase I and phase I+II groups, before and after S9 reaction; for THR transcriptional activity after phase I+II reaction: phase I+II group. The procedure: The hTRE_HeLa cell line, obtained from the MFDS, was used to detect thyroid hormone receptor (THR) agonists through transcriptional activation analysis, utilizing a stably modified thyroid receptor-reactive human cervical cancer cell line along with one plasmid from a nano luciferase reporter. For cell line maintenance, minimum essential media (MEM, Gibco, USA) supplemented with 10% FBS, 1% penicillin/streptomycin (P/S), and 1 ml Hygromycin B (InvivoGen, USA) was used. The hTRE_Hela cell line was conditioned and treated in test medium containing Phenol red free of MEM (Gibco) supplemented with 10% charcoal-stripped FBS (CS-FBS), 1% P/S, and 1 mL Hygromycin B. hTRE_HeLa cells were maintained in 37°C and 5% CO2 incubator. hTRE_HeLa cells were seeded with 5 × 10^3 cells per well in the 96-well plate for 24 h and treated with EDCs and S9 mixtures for 48 h.
The S9 mixture for phase I metabolism was prepared with 0.1 mg/ml rat liver S9, 2 × 10^-3 M NADPH, 3 × 10^-2 M G-6-P, 5 × 10^-2 M MgCl2, and 3 units/ml G-6-PD. For phase I+II metabolism, 2 × 10^-2 M GSH, 5 × 10^-3 M UDPGA, and 2 × 10^-5 M PAPS were additionally included to the S9 mixture. […] The S9 mixtures were added to the aforementioned test medium to be diluted 10 times. After 24 h of seeding, hTRE_HeLa cells were treated with the S9 mixtures pre-incubated for 6 h and EDCs with different concentrations.
The vehicle control (VC) included only 0.145% of DMSO containing 9 × 10^-12 M 9-cis-Retinoic acid. The final volume for each well was 100 μl. […] After treatment, 10 μl of treated medium was transferred to a new plate, to which 40 μl of test medium and 50 μl of Nano-Glo luciferase reagent (Promega, USA) were added. After a 10 min incubation, the luciferase activity was measured using a luminescence reader (Glomax Discover, Promega). For data analysis, relative transcriptional activity (RTA) of PC was set to 100%, and RTA of VCcontrol was set to 0%. The % to PC value of EDCs was calculated to (EDCs – VCtest) / (PC – VCcontrol). The VCtest was set to the VC for each test group. If the EDC was greater than or equal to 10% of PC, the EDC was determined to be a THR agonist-positive chemical. The data were described by the mean ± standard deviation.
A general note: In a reporter assay the amount or activity of a reporter protein is the signal.

A short description of series [3]: In vitro metabolic reaction using rat liver S9 fraction with LC-MS / GC-MS metabolic profiling. To be noted: for Metabollic rate: rat liver S9, phase I+II reaction vs inactivated S9 control, BDE28 and 4,4'-DIDBP by GC-MS, others by LC-MS; for Metabolic rate (parent decreased by) after the reaction: rat liver S9, phase I+II biotransformation.
Setting [4] is: concentration not given, RTA with 100 nM T3 (PC) = 100%.

Molecules are shown by their SMILES. Counter-ions that a name gives are not always drawn. Like-named read-outs stand apart in the source and are kept apart here.

`Ic1ccc(-c2ccc(I)cc2)cc1` [4,4’-DIDBP, 4,4'-diiodobiphenyl] yielded a Metabollic rate in series [1] of 82%. In series [2], the “THR agonist classification (positive if >= 10% of activity of 100 nM T3)” value was “THR agonistic negative”.
With `CCCCc1oc2ccccc2c1C(=O)c1cc(I)c(OCCN(CC)CC)c(I)c1` [Amiodarone, amiodarone hydrochloride], the “THR agonist classification (positive if >= 10% of activity of 100 nM T3)” value in series [2] is on record as “THR agonistic negative”.
In series [3], `Brc1ccc(Oc2ccc(Br)cc2Br)cc1` [BDE28, BDE No. 28] came in with a Metabollic rate of 99%. Besides, in series [2], the “THR agonist classification (positive if >= 10% of activity of 100 nM T3)” value is on record as “THR agonistic negative”.
On the same counts, the results for `O=C(c1ccc(O)cc1O)c1ccc(O)cc1O` [BP-2, 2,2',4,4'-tetrahydroxybenzophenone] are 11% and “THR agonistic negative”.
Turning to `CC(C)(c1ccc(O)cc1)c1ccc(O)cc1` [BPA, bisphenol A], in series [1], the Metabollic rate is 52%. Also, the “THR agonist classification (positive if >= 10% of activity of 100 nM T3)” value in series [2] is “THR agonistic negative”.
Take `Cc1cc(C(C#N)c2ccc(Cl)cc2)c(Cl)cc1NC(=O)c1cc(I)cc(I)c1O` (centres unmarked) [Closantel, closantel]: the Metabollic rate in series [1] is reported as 49%. The “THR agonist classification (positive if >= 10% of activity of 100 nM T3)” value in series [2] is given as “THR agonistic negative”.
Turning to `O=C(O)CCc1cc(I)c(Oc2ccc(O)cc2)c(I)c1` [DITPA, 3,5-diiodothyropropionic acid], the “Metabolic rate (parent decreased by) after the reaction” value in series [3] is listed as 29%. In series [2], the “THR agonist classification (positive if >= 10% of activity of 100 nM T3)” value is on record as “THR agonistic positive”. Besides, the “THR transcriptional activity after phase I+II reaction” value in series [2] (setting [4]) came to 30.7 ± 1.8%.
Consider `C[C@]12CC[C@@H]3c4ccc(O)cc4CC[C@H]3[C@@H]1CC[C@@H]2O` [E2, 17β-estradiol], for which, in series [3], the Metabollic rate is listed as 44%. Further, the “THR agonist classification (positive if >= 10% of activity of 100 nM T3)” value in series [2] was “THR agonistic negative”.
For `Cc1cc(OCC(=O)O)cc(C)c1Cc1ccc(O)c(C(C)C)c1` [GC-1, sobetirome], the “Metabolic rate (parent decreased by) after the reaction” value in series [3] came out at 15%. In addition, the “THR agonist classification (positive if >= 10% of activity of 100 nM T3)” value in series [2] is reported as “THR agonistic positive”. The “THR transcriptional activity after phase I reaction” value in series [2] (phase I group, concentration not given, RTA with 100 nM T3 (PC) = 100%) amounted to 166.3 ± 12.0%. Besides, the “THR transcriptional activity after phase I+II reaction” value in series [2] (setting [4]) was 160.6 ± 8.6%.
In the case of `COc1c(O)cc2oc(-c3ccc(O)cc3)cc(=O)c2c1O` [Hispidulin, hispidulin], the “THR agonist classification (positive if >= 10% of activity of 100 nM T3)” value in series [2] was “THR agonistic negative”.
On to `CC12CC1(C)C(=O)N(c1cc(Cl)cc(Cl)c1)C2=O` (centres unmarked) [Procymidone, procymidone], for which the Metabollic rate in series [1] came to 55%. In addition, the “THR agonist classification (positive if >= 10% of activity of 100 nM T3)” value in series [2] is reported as “THR agonistic negative”.
In series [3], `O=C(Nc1ccc(Oc2ccc(Cl)cc2)c(Cl)c1)c1cc(I)cc(I)c1O` [Rafoxanide, rafoxanide] had a Metabollic rate of 51%. Besides, the “THR agonist classification (positive if >= 10% of activity of 100 nM T3)” value in series [2] is listed as “THR agonistic negative”.
Consider `N[C@@H](Cc1cc(I)c(Oc2ccc(O)c(I)c2)c(I)c1)C(=O)O` [T3, 3,3’,5-triiodo-L-thyronine], for which the “Metabolic rate (parent decreased by) after the reaction” value in series [3] was found to be 3%. For the same molecule, the “Induction compared to the VC value” in series [2] (T3 100 nM as positive control) is reported as not below 4.8 fold. Besides, the “THR agonist classification (positive if >= 10% of activity of 100 nM T3)” value in series [2] is listed as “THR agonistic positive”.
Take `N[C@@H](Cc1cc(I)c(Oc2cc(I)c(O)c(I)c2)c(I)c1)C(=O)O` [T4, Levothyroxine]: the “THR agonist classification (positive if >= 10% of activity of 100 nM T3)” value in series [2] was “THR agonistic positive”.

For the origin of these results see paper PMC10619556, “Comprehensive Evaluation System for Post-Metabolic Activity of Potential Thyroid-Disrupting Chemicals” (Journal of Microbiology and Biotechnology, 2023).
